In test [1] the target is AKT1 (Homo sapiens, UniProt P31749). In words: Inhibition of AKT isoforms, enzyme IC50. The class given is biochemical.
For test [2], the system named is HN5 cells. In words: Roche Cell Death ELISAPlus apoptosis assay in HN5 cells (median effect and sensitization ratio analysis). Format: cell-based. The procedure:
HN5 cells are LICR-LON-HN5 head and neck carcinoma cells, which were a gift from the Institute of Cancer Research, Surrey, U.K.
(§1) Cell lines were grown in RPMI-1640 supplemented with 25 mM HEPES, 10 mM glutamine and 10% fetal bovine serum and maintained at 37° C. and 5% CO2 in a humid incubator. Assays were performed in 96 well microtiter plates with optimum seeding densities for each cell line.
(§2) Apoptosis was measured using the Roche Cell Death ELISA^Plus kit (catalog 1 774 425) which detects fragmented nucleosomal DNA that is generated during apoptosis.
Synergistic interaction between compounds was analyzed by the median effect method described by Chou and Talalay (Adv. Enzyme Regul. 22: 27-55, 1984). Briefly, if the two compounds fit the mutually exclusive model of Chou, one calculates the combination index (CI) using the formula CI=((D)1/(Dx)1)+((D)2/(Dx)2) (1) where (D)1 is the concentration of drug 1 in the combination that gives “x” percent apoptosis, (D)2 is the same for drug 2, and (Dx)1 and (Dx)2 are the concentrations of drug 1 or 2 that give “x” percent apoptosis when used alone. (D)1 and (D)2 are known from the composition of the combination and (Dx)1 and (Dx)2 can be calculated from the equation Dx=Dm*[fa/(1−fa)]^1/m (2) where Dm is the concentration of drug giving 50% effect, fa is the fraction affected, and m is the slope from the median effect plot of log (fa/fu) where fu is the fraction unaffected versus log (D). A CI less than 1 indicates synergy, equal to 1 indicates additivity and greater than 1 antagonism.
(§3) Sensitization is measured as the ratio between observed and expected apoptosis or caspase activation from a combination of AKT kinase inhibitor and EGFR/erb inhibitor. The expected level of activity (Ae) is calculated by Ae=1−((1−A1)*(1−A2)) (3) where A1 and A2 are the activities of drugs 1 and 2 alone at the concentration used in the combination (Harvey, R. J., J. Theor. Biol. 74: 411-437, 1978).

Test [3] has as its target AKT2 (Homo sapiens, UniProt P31751). In words: Inhibition of AKT isoforms, enzyme IC50. Format: biochemical.
Test [4] addresses AKT3 (Homo sapiens, UniProt Q9Y243). In words: Inhibition of AKT isoforms, enzyme IC50. The class given is biochemical.
In test [5] the test system is T47D cells. In words: Roche Cell Death ELISAPlus apoptosis assay in T47D cells (sensitization ratio). To be noted: for Apoptosis (FIG. 6): 10 μM GW572016 or 100 μM LY294002 separately. The class given is cell-based, human. The procedure: T47D cells are human breast ductal carcinoma cells originally obtained from the American Type Culture Collection.
as §1, §2
The expected level of activity (Ae) is calculated by Ae=1−((1−A1)*(1−A2)) (3) where A1 and A2 are the activities of drugs 1 and 2 alone at the concentration used in the combination (Harvey, R. J., J. Theor. Biol. 74: 411-437, 1978).
Apoptosis was measured using the Roche Cell Death ELISA^Plus kit, and the relative percentage of apoptosis was determined for each combination.

In test [6] the test system is MDA-MB468 cells. In words: Roche Cell Death ELISAPlus apoptosis assay in MDA-MB468 cells (sensitization ratio). Format: cell-based, human. The procedure: MDA-MB468 cells are human breast adenocarcinoma cells originally obtained from the American Type Culture Collection.
as §1, §2, §3
MDA-MB468 cells were incubated with varied concentrations of GW583340 for 24 h followed by an additional 4 h incubation with varied concentrations of LY294002. Apoptosis was measured using the Roche Cell Death ELISA^Plus kit, and the relative percentage of apoptosis was determined for each combination. When 1, 2, or 5 μM GW583340 were combined with 100 μM LY294002, SR values 3.4, 4.2 and 5.0, respectively, indicated significant synergism. At lower concentrations of LY294002, lesser degrees of synergism were observed.

The mark [7] stands for this setting: HN5, 24 h; concentration of the named drug within the 1:2 GW572016:LY294002 combo at Dm; read-out: Dm, drug in combo.
Setting [8] is: HN5, 24 h; concentration of the named drug within the 1:10 GW572016:LY294002 combo at Dm; read-out: Dm, drug in combo.
Where [9] appears, read: GW572016 2 μM 24 h, then LY294002 0 μM 4 h.
[10] abbreviates: GW572016 5 μM 24 h, then LY294002 0 μM 4 h.
The mark [11] stands for this setting: GW572016 10 μM 24 h, then LY294002 0 μM 4 h.
Where [12] appears, read: GW583340 1 μM 24 h, then LY294002 0 μM 4 h.
Where [13] appears, read: GW583340 2 μM 24 h, then LY294002 0 μM 4 h.
Where [14] appears, read: GW583340 5 μM 24 h, then LY294002 0 μM 4 h.
Setting [15] is: HN5, 24 h; concentration of the named drug within the 1:2 GW589522:LY294002 combo at Dm; read-out: Dm, drug in combo.
The mark [16] stands for this setting: HN5, 24 h; concentration of the named drug within the 1:10 GW589522:LY294002 combo at Dm; read-out: Dm, drug in combo.
The mark [17] stands for this setting: Homo sapiens, HN5, 24 h; drug alone (Table 3); concentration giving 50% effect; read-out: Dm.
Where [18] appears, read: GW583340 0 μM 24 h, then LY294002 4 μM 4 h.
Where [19] appears, read: GW583340 0 μM 24 h, then LY294002 10 μM 4 h.
Setting [20] is: GW583340 0 μM 24 h, then LY294002 20 μM 4 h.
Setting [21] is: GW583340 0 μM 24 h, then LY294002 50 μM 4 h.
The mark [22] stands for this setting: GW583340 0 μM 24 h, then LY294002 100 μM 4 h.
[23] abbreviates: GW572016 0 μM 24 h, then LY294002 20 μM 4 h.
Where [24] appears, read: GW572016 0 μM 24 h, then LY294002 50 μM 4 h.
[25] abbreviates: GW572016 0 μM 24 h, then LY294002 100 μM 4 h.

Counter-ions that a name gives are not always drawn. Like-named read-outs stand apart in the source and are kept apart here.

Chain of AKT3 (Q9Y243 whole entry, species assumed, canonical isoform): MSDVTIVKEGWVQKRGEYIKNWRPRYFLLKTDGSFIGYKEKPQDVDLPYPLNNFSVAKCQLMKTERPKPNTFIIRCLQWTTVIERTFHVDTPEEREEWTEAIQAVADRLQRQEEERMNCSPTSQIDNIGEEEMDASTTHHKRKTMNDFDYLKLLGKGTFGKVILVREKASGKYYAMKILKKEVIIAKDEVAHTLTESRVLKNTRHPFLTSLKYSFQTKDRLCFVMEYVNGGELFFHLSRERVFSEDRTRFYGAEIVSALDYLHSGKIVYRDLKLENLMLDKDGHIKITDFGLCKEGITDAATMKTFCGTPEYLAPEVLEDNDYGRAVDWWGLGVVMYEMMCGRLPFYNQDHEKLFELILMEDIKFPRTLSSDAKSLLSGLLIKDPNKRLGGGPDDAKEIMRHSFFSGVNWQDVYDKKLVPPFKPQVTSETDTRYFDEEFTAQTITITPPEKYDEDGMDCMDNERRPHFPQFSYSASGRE
Chain of AKT2 (P31751 whole entry, species assumed, canonical isoform): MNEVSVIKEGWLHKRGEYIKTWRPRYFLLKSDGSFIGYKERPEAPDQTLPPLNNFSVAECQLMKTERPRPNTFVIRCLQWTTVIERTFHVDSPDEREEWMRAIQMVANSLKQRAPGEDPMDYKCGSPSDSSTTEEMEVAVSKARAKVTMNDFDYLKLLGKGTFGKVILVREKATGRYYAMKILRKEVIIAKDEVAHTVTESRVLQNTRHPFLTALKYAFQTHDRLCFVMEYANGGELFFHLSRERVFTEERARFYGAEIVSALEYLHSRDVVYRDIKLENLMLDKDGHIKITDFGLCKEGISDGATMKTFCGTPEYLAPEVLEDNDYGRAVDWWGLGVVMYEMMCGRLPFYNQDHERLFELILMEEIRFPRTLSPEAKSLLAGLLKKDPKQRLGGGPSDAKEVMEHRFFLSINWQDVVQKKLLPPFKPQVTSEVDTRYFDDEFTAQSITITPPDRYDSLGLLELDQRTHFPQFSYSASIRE
Chain of AKT1 (P31749 whole entry, species assumed, canonical isoform): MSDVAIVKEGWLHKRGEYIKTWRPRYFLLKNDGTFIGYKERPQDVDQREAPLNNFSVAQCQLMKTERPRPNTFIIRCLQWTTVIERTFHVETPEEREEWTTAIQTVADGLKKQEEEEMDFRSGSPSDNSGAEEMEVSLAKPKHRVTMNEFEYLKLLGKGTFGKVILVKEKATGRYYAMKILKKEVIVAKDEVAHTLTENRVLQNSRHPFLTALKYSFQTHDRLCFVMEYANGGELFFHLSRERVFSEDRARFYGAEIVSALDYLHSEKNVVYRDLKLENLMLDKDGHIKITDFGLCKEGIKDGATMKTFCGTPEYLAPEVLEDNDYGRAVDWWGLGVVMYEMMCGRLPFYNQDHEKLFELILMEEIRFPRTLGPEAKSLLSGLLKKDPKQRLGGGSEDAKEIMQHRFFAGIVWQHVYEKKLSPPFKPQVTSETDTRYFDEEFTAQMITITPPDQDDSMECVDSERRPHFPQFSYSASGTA

By IC50 is commonly meant the concentration at which inhibition is half-maximal. Read a high IC50 as weaker potency. On to `CCn1c(-c2nonc2N)nc2cncc(OC3CCNCC3)c21` [Ex 9 (tri-HCl salt), 4-[1-Ethyl-7-(piperidin-4-yloxy)-1H-imidazo[4,5-c]pyridin-2-yl]-furazan-3-ylamine], for which the IC50 was 0.05 µM in test [1], 0.27 µM in test [3] and 0.19 µM in test [4]. Besides, the “Sensitization Ratio in HN5 with 5 μM GW589522A” value in test [2] (HN5; 5 μM GW589522A 24 h, then compound 8 μM 4 h) is reported as 10 @ 8.

`CS(=O)(=O)CCNCc1ccc(-c2ccc3ncnc(Nc4ccc(OCc5cccc(F)c5)c(Cl)c4)c3c2)o1.Cc1ccc(S(=O)(=O)O)cc1.Cc1ccc(S(=O)(=O)O)cc1.O` [GW572016, N-{3-Chloro-4-[(3-fluorobenzyl)oxy]phenyl}-6-[5-({[2-(methanesulphonyl)ethyl]amino}methyl)-2-furyl]-4-quinazolinamine ditosylate monohydrate]: the EC50 in test [2] (setting [7]) turned out to be 7.2 µM; in test [2] (setting [8]), 5.3 µM; in test [2] (Homo sapiens; HN5, 24 h; drug alone (Table 1); concentration giving 50% effect; read-out: Dm), 10.3 µM. In addition, the “Net Apoptosis” value in test [2] (HN5; GW572016 2 μM 24 h, then Ex 9 0 μM 4 h) is given as −1.0%; in test [2] (HN5; GW572016 4 μM 24 h, then Ex 9 0 μM 4 h), 2.5%; in test [2] (HN5; GW572016 10 μM 24 h, then Ex 9 0 μM 4 h), 5.1%; in test [5] (setting [9]), 0.4%; in test [5] (setting [10]), 0.3%; in test [5] (setting [11]), 2.2%. In addition, in test [5], the “Apoptosis (FIG. 6)” value is listed as “little effect”. Further, the “Net avg A405 nm” value in test [5] (setting [9]) amounted to 0.013; in test [5] (setting [10]), 0.013; in test [5] (setting [11]), 0.042.

Regarding `CS(=O)(=O)CCNCc1nc(-c2ccc3ncnc(Nc4ccc(OCc5cccc(F)c5)c(Cl)c4)c3c2)cs1` [GW583340, (4-(3-Fluoro-benzyloxy)-3-chlorophenyl)-(6-(2-((2-methanesulphonyl-ethylamino)-methyl)-thiazol-4-yl)quinazolin-4-yl)-amine], the results for the “Net Apoptosis” value in test [6] (setting [12]), in test [6] (setting [13]) and in test [6] (setting [14]) were 4.8%, 4.2% and 7.4%, respectively. Also, the “Net avg A405 nm” value in test [6] (setting [12]) is reported as 0.294; in test [6] (setting [13]), 0.286; in test [6] (setting [14]) it was 0.325.

For the compound `CS(=O)(=O)CCNCc1ccc(-c2ccc3ncnc(Nc4ccc(OCc5cccc(F)c5)c(Br)c4)c3c2)o1` [GW589522, (4-(3-Fluoro-benzyloxy)-3-bromophenyl)-(6-(5-((2-methanesulphonyl-ethylamino)-methyl)-furan-2-yl)quinazolin-4-yl)-amine], the EC50 amounted to 8.6 µM in test [2] (setting [15]), 4.4 µM in test [2] (setting [16]) and 15.9 µM in test [2] (setting [17]). The “Net Apoptosis” value in test [2] (HN5; GW589522 1.56 μM 24 h, then Ex 9 0 μM 4 h) is recorded as −1.0%; in test [2] (HN5; GW589522 3.12 μM 24 h, then Ex 9 0 μM 4 h), 2.5%; in test [2] (HN5; GW589522 6.25 μM 24 h, then Ex 9 0 μM 4 h), 2.5%; in test [2] (HN5; GW589522 12.5 μM 24 h, then Ex 9 0 μM 4 h), 5.1%.

In the case of `O=c1cc(N2CCOCC2)oc2c(-c3ccccc3)cccc12` [LY294002, 2-(4-morpholinyl)-8-phenyl-4H-1-benzopyran-4-one, reference compound], the EC50 amounted to 14.5 µM in test [2] (setting [7]); 17.2 µM in test [2] (setting [15]); 52.9 µM in test [2] (setting [8]); 44.3 µM in test [2] (setting [16]); 186 µM in test [2] (Homo sapiens, HN5, 24 h; drug alone (Table 1); concentration giving 50% effect; read-out: Dm); 123 µM in test [2] (setting [17]). Moreover, the “Net Apoptosis” value in test [6] (setting [18]) is 4.8%; in test [6] (setting [19]), 6.5%; in test [6] (setting [20]), 8.6%; in test [6] (setting [21]), 9.0%; in test [6] (setting [22]), 13.7%; in test [5] (setting [23]), 2.2%. In addition, the “Net Apoptosis” value in test [5] (setting [24]) is recorded as 3.6%; in test [5] (setting [25]) it was 4.5%. Further, the “Net avg A405 nm” value was 0.294 in test [6] (setting [18]); 0.314 in test [6] (setting [19]); 0.338 in test [6] (setting [20]); 0.344 in test [6] (setting [21]); 0.399 in test [6] (setting [22]); 0.041 in test [5] (setting [23]). Also, the “Net avg A405 nm” value in test [5] (setting [24]) is 0.063; in test [5] (setting [25]), 0.077. Further, in test [5], the “Apoptosis (FIG. 6)” value is “little effect”.

The values are drawn from patent US20070161665A1, “Cancer treatment method” (priority 2003, published 2007).
